In patent US7893061B2, “Alkyne-substituted pyridone compounds and methods of use” (Amgen Inc., priority 2006, dated 2011):

Molecular target: T1, c-KIT kinase enzyme (Homo sapiens, UniProt P10721)
T1 construct: cKIT (6.25 μM) (catalytic domain, N-terminal GST tagged, unphosphorylated)
Assay: cKIT Homogeneous Time Resolved Fluorescent (HTRF) kinase assay
Format: biochemical
Details: inhibition of the c-KIT kinase enzyme
Description: cKIT-Homogeneous Time Resolved Fluorescent (HTRF) Kinase Assay:
The purpose of this assay is to measure the inhibition of cKIT enzyme activity (autophosphorylation and phosphorylation of substrate) by small molecule test compounds. The cKIT HTRF assay begins with cKIT-catalyzed phosphorylation of biotinylated peptide Her-2 (N-GGMEDIYFEFMGGKKK-C) (SEQ ID 001) in the presence of ATP. The cKIT enzyme reaction is comprised of 1 μL of compound in 100% DMSO, 15 μL of 2× substrate mix (50 μM ATP and 2 μM biotinylated Her-2) and 15 μL of 2× cKIT (6.25 μM) (catalytic domain, N-terminal GST tagged, unphosphorylated) in 4 mM DTT all diluted in enzyme buffer (25 mM HEPES pH 7.5, 12.5 mM NaCl, 50 mM MgCl, 0.05% BSA). The reaction incubates for 90 min at RT. 160 Microliters of detection mixture containing 0.47 μg/mL steptavidin allophycocyanin and 29.7 pM europylatedanti-phosphotyrosine Ab (PT66, Perkin Elmer) in HTRF buffer (100 mM Hepes pH 7.5, 100 mM NaCl, 0.1% BSA, 0.05% Tween 20) is then added to stop the reaction, by diluting out the enzyme as well as to enable quantitation of phosphorylated Her-2. After 3 h at RT, the detection reaction is read in a Packard Discovery™ (model BD1000) plate reader. The wells are excited with coherent […] light and the ratio of delayed ([…] post excitation) emissions at […] (native europium fluorescence) and 665 nm (europium fluorescence transferred to allophycocyanin—an index of substrate phosphorylation) is determined. The proportion of substrate phosphorylated in the kinase reaction in the presence of compound compared with that phosphorylated in the presence of DMSO vehicle alone (HI control) is calculated using the formula:
% control (POC)=(cpd−average LO)/(average HI−average LO)*100. Data (consisting of POC and inhibitor concentration in μM) is fitted to a 4-parameter equation (y=A+((B−A)/(1+((x/C)^D))), where A is the minimum y (POC) value, B is the maximum y (POC), C is the x (compound concentration) at the point of inflection and D is the slope factor) using a Levenburg-Marquardt non-linear regression algorithm.

T1 sequence (P10721 589-937 limits assumed): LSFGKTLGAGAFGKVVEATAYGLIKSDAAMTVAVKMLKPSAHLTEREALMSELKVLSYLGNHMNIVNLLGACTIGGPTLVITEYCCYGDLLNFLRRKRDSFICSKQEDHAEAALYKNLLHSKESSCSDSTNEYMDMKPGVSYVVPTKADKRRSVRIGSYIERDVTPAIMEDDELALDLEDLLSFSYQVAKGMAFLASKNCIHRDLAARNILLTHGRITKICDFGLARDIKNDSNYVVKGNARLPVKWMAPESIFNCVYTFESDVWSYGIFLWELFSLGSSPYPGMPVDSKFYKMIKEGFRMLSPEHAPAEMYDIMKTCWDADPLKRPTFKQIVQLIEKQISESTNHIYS

SMILES	IC50 [µM]
CC(=O)N1CC(C)(C)c2ccc(-n3ccc(C)c(C#Cc4cnc(N)nc4)c3=O)cc21 [Example 8, 1-(1-acetyl-3,3-dimethyl-2,3-dihydro-1H-indol-6-yl)-3-((2-amino-5-pyrimidinyl)ethynyl)-4-methyl-2(1H)-pyridinone]	≤ 0.02
Cc1ccn(-c2cccc(OC(F)(F)F)c2)c(=O)c1C#Cc1cnc(N)nc1 [Example 10, 3-((2-amino-5-pyrimidinyl)ethynyl)-4-methyl-1-(3-((trifluoromethyl)oxy)phenyl)-2(1H)-pyridinone]	≤ 0.1
Cc1ccn(-c2cccc(C(F)(F)F)c2)c(=O)c1C#Cc1cnc(N)nc1 [Example 4, 3-((2-amino-5-pyrimidinyl)ethynyl)-4-methyl-1-(3-(trifluoromethyl)phenyl)-2(1H)-pyridinone]	≤ 0.1
Cc1ccn(-c2ccc3c(c2)CCO3)c(=O)c1C#Cc1cnc(N)nc1 [Example 9, 3-((2-amino-5-pyrimidinyl)ethynyl)-1-(2,3-dihydro-1-benzofuran-5-yl)-4-methyl-2(1H)-pyridinone]	≤ 0.1

Continued, values first:

IC50 [µM]	SMILES
≤ 0.01	Cc1ccc(-n2ccc(C)c(C#Cc3cnc(N)nc3)c2=O)cc1C [Example 7, 3-((2-amino-5-pyrimidinyl)ethynyl)-1-(3,4-dimethylphenyl)-4-methyl-2(1H)-pyridinone]
≤ 0.01	Cc1ccn(-c2ccc3c(c2)NCC3(C)C)c(=O)c1C#Cc1cnc(N)nc1 [Example 6, 3-((2-amino-5-pyrimidinyl)ethynyl)-1-(3,3-dimethyl-2,3-dihydro-1H-indol-6-yl)-4-methyl-2(1H)-pyridinone]
